# Where a SMILES comes first, the peptide text is derived from it. [ ]: non-standard residue; d: D form. pS = N[C@@H](COP(=O)(O)O)C(=O)O
# How the values were obtained:
# [1] = Self-degradation of P26 without enzymes (LC/MS); format: physicochemical; conditions: P26 solution 0.2 mg/mL, 37 °C, 7 days
# Method: P26 amelogenin peptide was synthetized by Biomer Technology (San Francisco, CA, USA). P26 solutions (0.2 mg/mL) were prepared as previously described and incubated at 37 °C for 7 days and subsequently analyzed by liquid chromatography/mass spectrometry (LC/MS; Scripps Research Institute, San Diego, CA, USA). Significant peaks in the MS spectra were matched to degradation products of P26 based on their m/z.
# [2] = test system: MMP8, MMP1, α-amylase, and lysozyme; assay: Peptide stability in artificial saliva with individual salivary enzymes (HPLC peak area); format: in vitro ADME; conditions: individual enzymes at native concentrations, peptide 0.2 mg/mL, 30 min, 37 °C, RP-HPLC C18 peak area, triplicate
# Method: (§1) Solutions of MMP8, MMP1 (R&D systems, Minneapolis, MN, USA), α-amylase, and lysozyme (Sigma, Burlington, MA, USA) were prepared following the manufacturer’s instructions. Prior to each use, pro-MMP1 and pro-MMP8 were activated with 10 mM APMA according to the manufacturer’s protocol (R&D Systems). Successful cleavage of both enzymes into their active form was confirmed using SDS-PAGE gel electrophoresis. To better mimic in vivo oral conditions, all enzymes were used at concentrations found in healthy individuals, as reported in the literature: MMP8 (final 0.286 μg/mL; [30], MMP1 (final 20 pg/mL [31], α-amylase (final 119 U/mL; [32], and lysozyme (final 0.4 μg/mL [30]. A total of 125 μL of aqueous P26 or P26-CS solutions (0.2 mg/mL final) was added to an equal volume of artificial saliva (AS; 1.2 mM CaCl2·2H2O, 50 mM HEPES buffer, 0.72 mM KH2PO4, 16 mM KCl, 4.5 mM NH4Cl, 0.2 mM MgCl2·6H20, and 1 ppm NaF). Then, the enzymes were mixed in and immediately placed in a water bath at 37 °C. An initial collection was (t = 0) carried out and analyzed by Reverse-phase High-Performance Liquid Chromatography (HPLC), as described below. Incubations for each sample were performed in triplicate. To quantify the effect of each enzyme, individual enzymes were incubated with 125 μL of P26-CS and 125 μL of AS. […]
# [3] = test system: α-amylase; assay: Peptide stability in artificial saliva with α-amylase (HPLC); format: in vitro ADME; conditions: 37 °C
# Method: as §1
# [4] = test system: MMP1, MMP8, α-amylase, and lysozyme; assay: Peptide stability in artificial saliva with all salivary enzymes simultaneously (HPLC); format: in vitro ADME; conditions: all enzymes at native concentrations, 30 min, 37 °C, n = 3
# Method: as §1
# [5] = P26 in aqueous solution, without enzymes; conditions: 37 °C, up to 7 days
compound,measurement,setting,value
CSCC[C@H](N)C(=O)N1CCC[C@H]1C(=O)N[C@@H](CC(C)C)C(=O)N1CCC[C@H]1C(=O)N[C@@H](COP(=O)(O)O)C(=O)N[C@@H](Cc1ccc(O)cc1)C(=O)N[C@@H](CCC(=O)O)C(=O)N[C@H](C(=O)N[C@@H](CC(C)C)C(=O)N[C@H](C(=O)N1CCC[C@H]1C(=O)N[C@@H](CC(C)C)C(=O)N[C@@H](CCCCN)C(=O)N[C@@H](Cc1c[nH]c2ccccc12)C(=O)N1CCC[C@H]1C(=O)N[C@@H](CO)C(=O)N[C@H](C(=O)N[C@@H](CC(=O)O)C(=O)N[C@@H](CCCCN)C(=O)N[C@H](C(=O)N[C@@H](CCCCN)C(=O)N[C@@H](CCCNC(=N)N)C(=O)N[C@@H](CCC(=O)O)C(=O)N[C@@H](CCC(=O)O)C(=O)N[C@H](C(=O)N[C@@H](CC(=O)O)C(=O)O)C(C)C)[C@@H](C)O)[C@@H](C)O)[C@@H](C)O)C(C)C [P26] (H-MPLP[pS]YEVLTPLKWPSTDKTKREEVD-OH),self-degradation of the peptide without enzymes,[1],substantially resistant to self-degradation
same,peptide substrate remaining (% area of initial HPLC peak at t = 0),[2],90–100%
same,degradation products at diluted amylase versus native ratio,"[3]; α-amylase 23.87 U/mL (5× dilution, enzyme to substrate 1:10) compared with 1:2, artificial saliva, HPLC spectra",lesser degradation products
same,degradation by amylase relative to other enzymes,"[3]; α-amylase 119 U/mL (enzyme to substrate 1:2), artificial saliva, 5 h, HPLC",highest levels of degradation amongst all the enzymes used
same,"peptide stability, P26 versus P26 with CS",[4],comparably stable
MPLPS(PHOS)YEVLTPLKWPSTDKTKREEVD,cleaved bond,[5],M-P and V-D and E-E and L-P and P-S(PHOS)

# — publication PMC11853660 (Biomimetics, 2025)
